Experimental data taken from paper PMC5218480 (PLoS ONE, 2017).

Test system: MV-4-11 cells
Assay: Gene expression microarray analysis (Affymetrix PrimeView) and GSEA
Assay type: cell-based, human
Parameters: RFU PODN (11730768_x_at) / Fold change /veh PODN (11730768_x_at) / RFU LINC00158 (11744669_a_at) / Fold change /veh LINC00158 (11744669_a_at) / RFU DUSP10 (11751237_a_at) / Fold change /veh DUSP10 (11751237_a_at) / RFU ID3 (11757404_x_at) / Fold change /veh ID3 (11757404_x_at) / RFU PLEKHG5 (11737974_s_at) / Fold change /veh PLEKHG5 (11737974_s_at) / RFU LRRC4B (11730491_at) / Fold change /veh LRRC4B (11730491_at) / RFU GIMAP4 (11747438_a_at) / Fold change /veh GIMAP4 (11747438_a_at) / RFU KRT8 (11758183_x_at) / Fold change /veh KRT8 (11758183_x_at) / RFU CNN1 (11734310_a_at) / Fold change /veh CNN1 (11734310_a_at) / RFU VPS37D (11726825_at) / Fold change /veh VPS37D (11726825_at) / RFU C10orf10 (11716522_x_at) / Fold change /veh C10orf10 (11716522_x_at) / RFU KIR2DL2 /// KIR2DL4 /// KIR2DL5A /// KIR2DL5B /// KIR2DS1 /// KIR2DS2 /// KIR2DS3 /// KIR2DS4 /// KIR3DL3 /// KIR3DL3 /// KIR3DS1 (11738374_at) / Fold change /veh KIR2DL2 /// KIR2DL4 /// KIR2DL5A /// KIR2DL5B /// KIR2DS1 /// KIR2DS2 /// KIR2DS3 /// KIR2DS4 /// KIR3DL3 /// KIR3DL3 /// KIR3DS1 (11738374_at) / RFU C1QL1 (11718748_at) / Fold change /veh C1QL1 (11718748_at) / RFU TMPRSS4 (11747572_a_at) / Fold change /veh TMPRSS4 (11747572_a_at) / RFU HAMP (11756126_x_at) / Fold change /veh HAMP (11756126_x_at) / RFU RNFT2 (11725882_a_at) / Fold change /veh RNFT2 (11725882_a_at) / RFU NR4A2 (11747474_a_at) / Fold change /veh NR4A2 (11747474_a_at) / RFU ABCC12 (11746883_a_at) / Fold change /veh ABCC12 (11746883_a_at) / RFU TMEM136 (11760407_x_at) / Fold change /veh TMEM136 (11760407_x_at) / RFU CLDN22 /// WWC2 (11732394_at) / Fold change /veh CLDN22 /// WWC2 (11732394_at) / RFU HLA-DPB1 (11760878_x_at) / Fold change /veh HLA-DPB1 (11760878_x_at) / RFU SPINT1 (11716480_a_at) / Fold change /veh SPINT1 (11716480_a_at) / RFU GAP43 (11754022_s_at) / Fold change /veh GAP43 (11754022_s_at) / RFU A4GNT (11735810_at) / Fold change /veh A4GNT (11735810_at) / RFU PRB3 (11715151_x_at) / Fold change /veh PRB3 (11715151_x_at) / RFU TUBB4B (11761932_at) / Fold change /veh TUBB4B (11761932_at) / RFU CAPN14 (11732068_a_at) / Fold change /veh CAPN14 (11732068_a_at) / RFU TMCC2 (11721928_a_at) / Fold change /veh TMCC2 (11721928_a_at) / RFU IRGQ (11745062_a_at) / Fold change /veh IRGQ (11745062_a_at) / RFU FAM174B (11720279_a_at) / Fold change /veh FAM174B (11720279_a_at) / RFU TMPRSS4 (11748680_a_at) / Fold change /veh TMPRSS4 (11748680_a_at) / RFU FAM212B (11763350_a_at) / Fold change /veh FAM212B (11763350_a_at) / RFU PLEKHG5 (11743358_a_at) / Fold change /veh PLEKHG5 (11743358_a_at) / RFU ZSCAN30 (11745921_a_at) / Fold change /veh ZSCAN30 (11745921_a_at) / RFU CMKLR1 (11741424_a_at) / Fold change /veh CMKLR1 (11741424_a_at) / RFU LOC101060620 /// MAPK8IP1 (11723275_at) / Fold change /veh LOC101060620 /// MAPK8IP1 (11723275_at) / RFU SPTSSB (11747773_x_at) / Fold change /veh SPTSSB (11747773_x_at) / RFU PRSS12 (11739890_at) / Fold change /veh PRSS12 (11739890_at) / RFU BIN1 (11741810_x_at) / Fold change /veh BIN1 (11741810_x_at) / RFU WNT11 (11732464_a_at) / Fold change /veh WNT11 (11732464_a_at) / RFU C10orf10 (11716521_a_at) / Fold change /veh C10orf10 (11716521_a_at) / RFU C5orf56 (11738089_at) / Fold change /veh C5orf56 (11738089_at) / RFU CYB561 (11721691_x_at) / Fold change /veh CYB561 (11721691_x_at) / RFU ANKRD19P (11752326_a_at) / Fold change /veh ANKRD19P (11752326_a_at) / RFU OR2T12 /// OR2T33 /// OR2T8 (11738714_s_at) / Fold change /veh OR2T12 /// OR2T33 /// OR2T8 (11738714_s_at) / RFU VCAN (11748164_a_at) / Fold change /veh VCAN (11748164_a_at) / RFU JSRP1 (11732532_at) / Fold change /veh JSRP1 (11732532_at) / RFU KRTAP10-11 (11738290_x_at) / Fold change /veh KRTAP10-11 (11738290_x_at) / RFU MYO3A (11730013_a_at) / Fold change /veh MYO3A (11730013_a_at) / RFU EBF3 (11725865_a_at) / Fold change /veh EBF3 (11725865_a_at) / RFU CAMK2N1 (11719241_x_at) / Fold change /veh CAMK2N1 (11719241_x_at) / RFU C5orf56 (11738088_a_at) / Fold change /veh C5orf56 (11738088_a_at) / RFU OLFML3 (11715873_a_at) / Fold change /veh OLFML3 (11715873_a_at) / RFU LOC100653217 /// NTM (11731650_a_at) / Fold change /veh LOC100653217 /// NTM (11731650_a_at) / RFU MAPK11 (11762145_a_at) / Fold change /veh MAPK11 (11762145_a_at) / RFU FIZ1 (11724087_x_at) / Fold change /veh FIZ1 (11724087_x_at) / RFU OASL (11726364_x_at) / Fold change /veh OASL (11726364_x_at) / RFU SOX15 (11748057_x_at) / Fold change /veh SOX15 (11748057_x_at) / RFU CD79A (11719716_a_at) / Fold change /veh CD79A (11719716_a_at) / RFU HIST1H1D (11736915_at) / Fold change /veh HIST1H1D (11736915_at) / RFU CASKIN2 (11723855_a_at) / Fold change /veh CASKIN2 (11723855_a_at) / RFU LOC730098 (11760151_x_at) / Fold change /veh LOC730098 (11760151_x_at) / RFU OR4N2 (11742367_at) / Fold change /veh OR4N2 (11742367_at) / RFU PRRT2 (11749266_a_at) / Fold change /veh PRRT2 (11749266_a_at) / RFU SNX32 (11753110_a_at) / Fold change /veh SNX32 (11753110_a_at) / RFU CDHR5 (11726645_a_at) / Fold change /veh CDHR5 (11726645_a_at) / RFU RCAN1 (11760418_a_at) / Fold change /veh RCAN1 (11760418_a_at) / RFU FAM167A (11723789_a_at) / Fold change /veh FAM167A (11723789_a_at) / RFU FAM26E (11764081_at) / Fold change /veh FAM26E (11764081_at) / RFU ISYNA1 (11749810_s_at) / Fold change /veh ISYNA1 (11749810_s_at) / RFU ACY1 (11761880_at) / Fold change /veh ACY1 (11761880_at) / RFU 11764098_at / Fold change /veh 11764098_at / RFU SAMD14 (11745864_x_at) / Fold change /veh SAMD14 (11745864_x_at) / RFU NPB (11741838_a_at) / Fold change /veh NPB (11741838_a_at) / RFU TMPRSS6 (11731388_a_at) / Fold change /veh TMPRSS6 (11731388_a_at) / RFU KRTAP10-2 (11738614_at) / Fold change /veh KRTAP10-2 (11738614_at) / RFU ARHGAP8 /// PRR5-ARHGAP8 (11727945_x_at) / Fold change /veh ARHGAP8 /// PRR5-ARHGAP8 (11727945_x_at) / RFU KRTAP5-7 /// NADSYN1 (11734609_at) / Fold change /veh KRTAP5-7 /// NADSYN1 (11734609_at) / RFU RASL12 (11751679_a_at) / Fold change /veh RASL12 (11751679_a_at) / RFU CDKN2B (11736163_a_at) / Fold change /veh CDKN2B (11736163_a_at) / RFU PRF1 (11729649_at) / Fold change /veh PRF1 (11729649_at) / RFU, ZNF638 /// ZNF638-IT1 / Fold change vs veh, ZNF638 /// ZNF638-IT1 / RFU, PANK3 / Fold change vs veh, PANK3 / RFU, SH3YL1 / Fold change vs veh, SH3YL1 / RFU, ZEB2 / Fold change vs veh, ZEB2 / RFU, NRIP1 / Fold change vs veh, NRIP1 / RFU, PTTG1IP / Fold change vs veh, PTTG1IP / RFU, CAPN2 / Fold change vs veh, CAPN2 / RFU, MED14 / Fold change vs veh, MED14 / RFU, SNORA58 / Fold change vs veh, SNORA58 / RFU, C1orf63 / Fold change vs veh, C1orf63 / RFU, LRRFIP1 / Fold change vs veh, LRRFIP1 / RFU, NDUFAF7 / Fold change vs veh, NDUFAF7 / RFU, SLC12A2 / Fold change vs veh, SLC12A2 / RFU, IBTK / Fold change vs veh, IBTK / RFU, ESF1 / Fold change vs veh, ESF1 / Fold change vs veh, TMEM50B / RFU, TAOK1 / Fold change vs veh, TAOK1 / RFU, ACBD3 / Fold change vs veh, ACBD3 / RFU, TMA16 / Fold change vs veh, TMA16 / RFU, RWDD3 / Fold change vs veh, RWDD3 / RFU, BCAT1 / Fold change vs veh, BCAT1 / RFU, EDEM3 / Fold change vs veh, EDEM3 / RFU, TMEM33 / Fold change vs veh, TMEM33 / RFU, WDR75 / Fold change vs veh, WDR75 / RFU, AHCTF1 / Fold change vs veh, AHCTF1 / RFU, TFRC / Fold change vs veh, TFRC / RFU, ZDHHC17 / Fold change vs veh, ZDHHC17 / RFU, NOM1 / Fold change vs veh, NOM1 / RFU, ARL8B / Fold change vs veh, ARL8B / RFU, ZBTB11 / Fold change vs veh, ZBTB11 / RFU, TAMM41 / Fold change vs veh, TAMM41 / RFU, KIAA1704 /// LOC100996395 / Fold change vs veh, KIAA1704 /// LOC100996395 / RFU, ING1 / Fold change vs veh, ING1 / RFU, TRMT61B / Fold change vs veh, TRMT61B / RFU, FUBP3 / Fold change vs veh, FUBP3 / RFU, TP53 / Fold change vs veh, TP53 / RFU, TNKS2 / Fold change vs veh, TNKS2 / RFU, ZFP14 / Fold change vs veh, ZFP14 / RFU, ACTR2 / Fold change vs veh, ACTR2 / RFU, PPP3R1 / Fold change vs veh, PPP3R1 / RFU, PIK3R1 / Fold change vs veh, PIK3R1 / RFU, HNRNPA1 / Fold change vs veh, HNRNPA1 / RFU, RNF170 / Fold change vs veh, RNF170 / RFU, ZNF28 / Fold change vs veh, ZNF28 / RFU, RNGTT / Fold change vs veh, RNGTT / RFU, OGT / Fold change vs veh, OGT / RFU, BRD1 / Fold change vs veh, BRD1 / RFU, MARS / Fold change vs veh, MARS / RFU, ZNF655 / Fold change vs veh, ZNF655 / RFU, FAHD1 / Fold change vs veh, FAHD1 / RFU, BDP1 / Fold change vs veh, BDP1 / RFU, LRRCC1 / Fold change vs veh, LRRCC1 / RFU, ARID1A / Fold change vs veh, ARID1A / RFU, ZNF146 / Fold change vs veh, ZNF146 / RFU, ZNF330 / Fold change vs veh, ZNF330 / RFU, GPN3 / Fold change vs veh, GPN3 / RFU, C9orf123 / Fold change vs veh, C9orf123 / RFU, N4BP2L2 / Fold change vs veh, N4BP2L2 / RFU, ARFIP1 / Fold change vs veh, ARFIP1 / RFU, FAM179B / Fold change vs veh, FAM179B / RFU, BCL10 / Fold change vs veh, BCL10 / RFU, UHRF1BP1L / Fold change vs veh, UHRF1BP1L / RFU, BET1 / Fold change vs veh, BET1 / RFU, CNOT2 / Fold change vs veh, CNOT2 / RFU, ZNF268 / Fold change vs veh, ZNF268 / Fold change vs veh, ZNF507 / RFU, DGCR2 / Fold change vs veh, DGCR2 / RFU, WDSUB1 / Fold change vs veh, WDSUB1 / Fold change vs veh, HSP90B1 /// MIR3652 / RFU, ADSS / Fold change vs veh, ADSS / RFU, GK / Fold change vs veh, GK / RFU, ZNF148 / Fold change vs veh, ZNF148 / RFU, TAF9 / Fold change vs veh, TAF9 / RFU, SLC1A5 / Fold change vs veh, SLC1A5 / RFU, SLMO2 / Fold change vs veh, SLMO2 / RFU, ABCC4 / Fold change vs veh, ABCC4 / RFU, LOC101060439 /// RAP1B / Fold change vs veh, LOC101060439 /// RAP1B / RFU, RFX7 / Fold change vs veh, RFX7 / RFU, GTPBP10 / Fold change vs veh, GTPBP10 / RFU, CNEP1R1 / Fold change vs veh, CNEP1R1 / RFU, BIVM-ERCC5 /// ERCC5 / Fold change vs veh, BIVM-ERCC5 /// ERCC5 / RFU, ILF3 / Fold change vs veh, ILF3 / RFU 11762660_at / Fold change /veh 11762660_at / RFU VCAN (11757783_s_at) / Fold change /veh VCAN (11757783_s_at) / RFU DDX43 (11728927_at) / Fold change /veh DDX43 (11728927_at) / RFU KRT8 (11758188_x_at) / Fold change /veh KRT8 (11758188_x_at) / RFU NKD1 (11759106_at) / Fold change /veh NKD1 (11759106_at) / RFU SRD5A1 (11742802_a_at) / Fold change /veh SRD5A1 (11742802_a_at) / RFU TPSAB1 /// TPSB2 (11721975_s_at) / Fold change /veh TPSAB1 /// TPSB2 (11721975_s_at) / RFU GSTM3 (11746129_a_at) / Fold change /veh GSTM3 (11746129_a_at) / RFU IL23R (11737362_x_at) / Fold change /veh IL23R (11737362_x_at) / RFU TMEM51 (11727254_a_at) / Fold change /veh TMEM51 (11727254_a_at) / RFU PIWIL2 (11732686_x_at) / Fold change /veh PIWIL2 (11732686_x_at) / RFU ORM1 (11744905_x_at) / Fold change /veh ORM1 (11744905_x_at) / RFU CCDC152 (11743942_at) / Fold change /veh CCDC152 (11743942_at) / RFU ECM1 (11717891_a_at) / Fold change /veh ECM1 (11717891_a_at) / RFU IL23R (11748794_a_at) / Fold change /veh IL23R (11748794_a_at) / RFU TNFAIP8L3 (11732012_x_at) / Fold change /veh TNFAIP8L3 (11732012_x_at) / RFU MBOAT4 (11741988_at) / Fold change /veh MBOAT4 (11741988_at) / RFU 11764193_at / Fold change /veh 11764193_at / RFU TMEM53 (11763286_at) / Fold change /veh TMEM53 (11763286_at) / RFU MAGEB2 (11727129_at) / Fold change /veh MAGEB2 (11727129_at) / RFU TMEM200A (11744735_a_at) / Fold change /veh TMEM200A (11744735_a_at) / RFU CCDC152 (11751479_a_at) / Fold change /veh CCDC152 (11751479_a_at) / RFU FAM211A (11726209_a_at) / Fold change /veh FAM211A (11726209_a_at) / RFU RGS16 (11746705_a_at) / Fold change /veh RGS16 (11746705_a_at) / RFU VCAN (11755009_s_at) / Fold change /veh VCAN (11755009_s_at) / RFU RHOB (11743442_s_at) / Fold change /veh RHOB (11743442_s_at) / RFU RGS16 (11720943_a_at) / Fold change /veh RGS16 (11720943_a_at) / RFU RGS16 (11720944_at) / Fold change /veh RGS16 (11720944_at) / RFU, VPS4B / Fold change vs veh, VPS4B / RFU, CREB1 / Fold change vs veh, CREB1 / RFU, DNAJC13 / Fold change vs veh, DNAJC13 / RFU, GNAQ / Fold change vs veh, GNAQ / RFU, CDK5R1 / Fold change vs veh, CDK5R1 / RFU, ZRANB3 / Fold change vs veh, ZRANB3 / RFU, CUL4A / Fold change vs veh, CUL4A / RFU, CCNY / Fold change vs veh, CCNY / RFU, UFL1 / Fold change vs veh, UFL1 / RFU, COG3 / Fold change vs veh, COG3 / RFU, DIAPH2 / Fold change vs veh, DIAPH2 / RFU, SKA2 / Fold change vs veh, SKA2 / RFU, AFF3 / Fold change vs veh, AFF3 / RFU, LMF1 / Fold change vs veh, LMF1 / RFU, IPO11 / Fold change vs veh, IPO11 / RFU, DFFB / Fold change vs veh, DFFB / RFU, FOXP1 / Fold change vs veh, FOXP1 / RFU, CARD8 / Fold change vs veh, CARD8 / RFU, STRN3 / Fold change vs veh, STRN3 / RFU, ADK / Fold change vs veh, ADK / RFU, RASSF2 / Fold change vs veh, RASSF2 / RFU, WIPF1 / Fold change vs veh, WIPF1 / RFU, LARP1B / Fold change vs veh, LARP1B / RFU, RASA1 / Fold change vs veh, RASA1 / RFU, RB1 / Fold change vs veh, RB1 / RFU, PPFIA1 / Fold change vs veh, PPFIA1 / RFU, MAT2A / Fold change vs veh, MAT2A / RFU, CCT5 / Fold change vs veh, CCT5 / RFU, WDR92 / Fold change vs veh, WDR92 / RFU, CUX1 / Fold change vs veh, CUX1 / RFU, TTC7A / Fold change vs veh, TTC7A / RFU, TMEM135 / Fold change vs veh, TMEM135 / RFU, DEPTOR / Fold change vs veh, DEPTOR / RFU, CPM / Fold change vs veh, CPM / RFU, DNAJB6 / Fold change vs veh, DNAJB6 / RFU, CACNA2D3 / Fold change vs veh, CACNA2D3 / RFU, DTX4 / Fold change vs veh, DTX4 / RFU, TFCP2 / Fold change vs veh, TFCP2 / RFU, GMCL1 /// GMCL1P1 / Fold change vs veh, GMCL1 /// GMCL1P1 / RFU, AEBP2 / Fold change vs veh, AEBP2 / RFU, SNHG1 /// SNORD22 /// SNORD25 /// SNORD26 /// SNORD27 /// SNORD28 /// SNORD29 /// SNORD31 / Fold change vs veh, SNHG1 /// SNORD22 /// SNORD25 /// SNORD26 /// SNORD27 /// SNORD28 /// SNORD29 /// SNORD31 / Fold change (Aza/veh), C12orf56 (ProbeSet 11735607_a_at) / Fold change (ACY-1035/veh), C12orf56 (ProbeSet 11735607_a_at) / Fold change (Aza/veh), FGFR1OP (ProbeSet 11751329_s_at) / Fold change (ACY-1035/veh), FGFR1OP (ProbeSet 11751329_s_at) / Fold change (Aza/veh), VPS36 (ProbeSet 11739960_a_at) / Fold change (ACY-1035/veh), VPS36 (ProbeSet 11739960_a_at) / RFU SYPL1 (11715823_x_at) / Fold change /veh SYPL1 (11715823_x_at) / RFU IGFBP7 (11715501_s_at) / Fold change /veh IGFBP7 (11715501_s_at) / RFU REEP3 (11722064_at) / Fold change /veh REEP3 (11722064_at) / RFU IGLL1 (11728026_x_at) / Fold change /veh IGLL1 (11728026_x_at): dose or concentration left out as unconfirmed
Details: ProbeSet 11733831_s_at; LIST D

`Nc1ncn([C@@H]2O[C@H](CO)[C@@H](O)[C@H]2O)c(=O)n1` [azacitidine] was tested, and the “Fold change vs veh, GMCL1 /// GMCL1P1” value was 0.81.
